“Also recorded” adds a separate entry of the source.
Columns and labels:
Assay type in all cases: in vivo, New Zealand rabbit
[1] = test system: cataract induced left eye; assay: Macroscopic examination, cataract induced left eye (cinnamic acid derivatives, Tables 10-11); conditions: for No Abnormality Detected, incidence: animals affected/6
Method: (§1) An illustrative ophthalmic formulation for treatment of eye disease is set forth below: The formulations provided herein below are tested in cataract induced New Zealand rabbits, and the results are discussed herein below.
(§2) Cataract was induced by injecting 0.5% Methyl Cellulose, which is replaced by aqueous humor in the rabbit eye (i.e., 0.2 mL of Aqueous humor was withdrawn and the same 0.2 mL of 0.5% Methyl cellulose was injected as a replacement). Cataract was observed within 3-4 days of 0.5% Methyl cellulose replacement. Cataract induction was performed to left eye and right eye was served as a control.
(§3) Rabbits were observed by ophthalmoscope and slit lamp once in three days for cataract confirmation. Intraocular pressure was measured with a tonometer once in three days for the confirmation of glaucoma.

[2] = test system: intraocular pressure, induced left eye; assay: Intraocular pressure, tonometer (Table 13); design: unit not given beside the values; conditions: left eye induced/treated
Method: as §2, §3
(§4) Intra-ocular pressures were measured in animals in each group once in three days using a Tonometer. The readings were documented for each eye separately.

[3] = test system: cataract induced left eye: lens and cornea; assay: Microscopic observations (histopathology) of lens and cornea (Tables 4-8); conditions: 0.5% rosmarinic acid, Table 8, G5 group
Method: as §1, §2
(§5) All test formulations provided as above were administered topically as a therapeutic treatment. A total of 100 μL/Rabbit of placebo or Rosmarinic acid formulations (F1, F2, F3 and F4) were instilled in the 50 μL/eye (left) in two divided doses for 28 days
(§6) All surviving animals were euthanized on Day 29 by overdose of Thiopental Sodium. Before scheduled euthanasia, the animals were fasted overnight (water allowed) and terminal body weights were recorded. Animals were subjected to detailed macroscopic observation during necropsy. Both right (untreated/uninduced) and left (treated/induced) eyes were collected and cornea and lens were separated, preserved in Davidson fluid. Cornea and lens selected for histopathological evaluation were processed, embedded and sections were cut at 3-5 μm thickness, Sections were placed on grease-free slides and stained with Hematoxylin and Eosin. A 5-step grading system of minimum, mild, moderate, marked and severe will be used to rank microscopic findings for comparison among groups. Data was compiled based on incidences and severity of changes.

[4] = test system: intraocular pressure, glaucoma-induced left eye; assay: Intraocular pressure, tonometer (Table 9); conditions: 0.5%, Table 9 G5 group
Method: as §2, §3, §5

[5] = test system: cataract induced left eye: lens; assay: Microscopic observations (histopathology) of lens (Table 12)
Method: as §1, §2, §6

[6] = test system: cataract induced New Zealand rabbits (left eye); assay: Macroscopic observations, cataract induced left eye (study of rosmarinic acid formulations, Tables 2-3); conditions: ocular 100 μL/rabbit, 28 days, F1 0.25%, F2 0.5%, F3 1.0% rosmarinic acid each with N-acetyl carnosine, F4 0.5% without
Method: as §1
(§7) The following preclinical studies were conducted in rabbit model to test the efficacy of various active ingredients.
as §2, §3
Test Item formulations were administered through ocular route. Ocular route has been chosen as it is the intended therapeutic route of administration in humans.
All test formulations provided as above were administered topically as a therapeutic treatment. A total of 100 μL/Rabbit of placebo or Rosmarinic acid formulations (F1, F2, F3 and F4) were instilled in the 50 μL/eye (left) in two divided doses for 28 days […]

[7] = test system: cataract and intraocular pressure/glaucoma in induced rabbit eye; assay: Overall efficacy in cataract reduction and reducing intraocular pressure
Method: as §1, §7, §2, §3

[8] = test system: intraocular pressure, glaucoma-induced left eye; assay: Intraocular pressure, tonometer (Table 17); conditions: for Intraocular pressure, Mean, Left eye: Left (induced) eye; for Intraocular pressure, Mean, Left eye / Intraocular pressure, Mean, Right eye: male, 6 animals/group
Method: as §2, §3, §4

[9] = test system: cataract induced left eye: lens and cornea; assay: Microscopic examination (histopathology) of lens and cornea (Table 16)
Method: as §1, §2, §6

[10] = test system: cataract induced left eye; assay: Macroscopic examination, cataract induced left eye (Tables 14-15)
Method: as §1, §2, §3

[11] = left eye (cataract induced), macroscopic
[12] = left eye (cataract induced), lens
[13] = left eye (cataract induced), lens, number of animals
[14] = second study, 0.5% rosmarinic acid (G2), 0.25% caffeic acid (G6)

## O=C(/C=C/c1ccc(O)c(O)c1)O[C@H](Cc1ccc(O)c(O)c1)C(=O)O [Rosmarinic acid]
[1]; Table 11, G2 0.5% rosmarinic acid, G6 0.25% caffeic acid
  macroscopic examination (in words): minimal corneal opacity in some animals, with no abnormalities in one
[1]; [11]
  Opacity, cornea and red discoloured, with diffuse opacity: Minimal, incidence: 1/6
  Opacity, cornea, diffuse: Mild, incidence: 1/6
  Opacity, cornea, diffuse: Minimal, incidence: 3/6
  No Abnormality Detected, incidence: 1/6
[2]; Day 3
  Intraocular Pressure, mean: 83.15
[2]; Day 6
  Intraocular Pressure, mean: 77.55
[2]; Day 9
  Intraocular Pressure, mean: 78.72
[2]; Day 12
  Intraocular Pressure, mean: 66.83
[2]; Day 15
  Intraocular Pressure, mean: 48.83
[2]; Day 18
  Intraocular Pressure, mean: 48.48
[2]; Day 21
  Intraocular Pressure, mean: 46.77
[2]; Day 24
  Intraocular Pressure, mean: 44.55
[2]; Day 27
  Intraocular Pressure, mean: 42.62
[2]; Day 30
  Intraocular Pressure, mean: 23.27
[2]; Day 33
  Intraocular Pressure, mean: 18.45↓↓
[3]
  corneal edema (in words): five animals' corneal edema was within histological limits and one animal with minimal corneal edema
  epithelial proliferation in lens (in words): In five animals' epithelial proliferation in lens was within histological limits; also recorded: Only one animal displayed minimal epithelial proliferation
  liquefaction in the lens (in words): in four animals, liquefaction in the lens is within histological limits; also recorded: in two animals, minimal liquefaction was observed
[4]; 28-day treatment regimen
  intraocular pressure following treatment: 20.06 mmHg
[4]; within six days
  intraocular pressure initially measured: 59.72 mmHg
[5]; left eye (cataract induced)
  Within Normal Histological Limits, incidence: 0/6
[5]; [12]
  Epithelial proliferation, incidence: 2/6
  Epithelial proliferation: Absent, incidence: 4/6
  Lenticular Degeneration, incidence: 4/6
  Liquefaction, incidence: 4/6
  Liquefaction: Absent, incidence: 2/6
[5]; [13]
  Epithelial proliferation: Marked, incidence: 1
  Epithelial proliferation: Minimal, incidence: 1
  Liquefaction: Marked, incidence: 1
  Liquefaction: Minimal, incidence: 3
[6]
  Macroscopic inference (Left Eye): no abnormalities found in all the 6 animals
[7]; 0.5% rosmarinic acid, G5 of first study
  overall efficacy (in words): demonstrates its efficacy not only in preventing lens liquefaction, epithelial proliferation, and corneal edema and treating cataract but also in reducing intraocular pressure
[7]; [14]
  overall efficacy (in words): shown to be the best; also recorded: superior efficacy

## O=C(O)/C=C/c1ccc(O)c(O)c1 [Caffeic acid]
[1]; [11]
  Opacity, cornea and red discoloured, with diffuse opacity: Moderate, incidence: 1/6
  Opacity, cornea, diffuse: Mild, incidence: 1/6
  Opacity, cornea, diffuse: Minimal, incidence: 1/6
  Opacity, cornea, diffuse: Moderate, incidence: 1/6
  No Abnormality Detected, incidence: 1/6
[2]; Day 3
  Intraocular Pressure, mean: 90.35
[2]; Day 6
  Intraocular Pressure, mean: 63.22
[2]; Day 9
  Intraocular Pressure, mean: 62.17
[2]; Day 12
  Intraocular Pressure, mean: 65.93
[2]; Day 15
  Intraocular Pressure, mean: 45.45
[2]; Day 18
  Intraocular Pressure, mean: 45.73
[2]; Day 21
  Intraocular Pressure, mean: 41.50
[2]; Day 24
  Intraocular Pressure, mean: 38.93
[2]; Day 27
  Intraocular Pressure, mean: 32.12
[2]; Day 30
  Intraocular Pressure, mean: 30.78
[2]; Day 33
  Intraocular Pressure, mean: 26.60↓↓
[5]; Table 12, G2 0.5% rosmarinic acid, G6 0.25% caffeic acid
  histopathological findings, lens (in words): a higher incidence of lenticular degeneration
[5]; left eye (cataract induced)
  Within Normal Histological Limits, incidence: 0/6
[5]; [12]
  Epithelial proliferation, incidence: 3/6
  Epithelial proliferation: Absent, incidence: 3/6
  Lenticular Degeneration, incidence: 6/6
  Liquefaction, incidence: 4/6
  Liquefaction: Absent, incidence: 2/6
[5]; [13]
  Epithelial proliferation: Mild, incidence: 1
  Epithelial proliferation: Minimal, incidence: 1
  Epithelial proliferation: Moderate, incidence: 1
  Liquefaction: Mild, incidence: 1
  Liquefaction: Minimal, incidence: 2
  Liquefaction: Moderate, incidence: 1
[8]; Day 3
  Intraocular pressure, Mean, Left eye: 41.50 mmHg
  Intraocular pressure, Mean, Right eye: 15.83 mmHg
[8]; Day 6
  Intraocular pressure, Mean, Left eye: 23.89 mmHg
  Intraocular pressure, Mean, Right eye: 19.11 mmHg
[8]; Day 9
  Intraocular pressure, Mean, Left eye: 21.61 mmHg
  Intraocular pressure, Mean, Right eye: 16.61 mmHg
[8]; Day 12
  Intraocular pressure, Mean, Left eye: 25.33 mmHg
  Intraocular pressure, Mean, Right eye: 16.94 mmHg
[8]; Day 15
  Intraocular pressure, Mean, Left eye: 25.11 mmHg
  Intraocular pressure, Mean, Right eye: 14.61 mmHg
[8]; Day 18
  Intraocular pressure, Mean, Left eye: 29.56 mmHg
  Intraocular pressure, Mean, Right eye: 15.44 mmHg
[8]; Day 21
  Intraocular pressure, Mean, Left eye: 29.94 mmHg
  Intraocular pressure, Mean, Right eye: 15.28 mmHg
[8]; Day 25
  Intraocular pressure, Mean, Left eye: 24.78 mmHg
  Intraocular pressure, Mean, Right eye: 17.17 mmHg
[8]; Day 28, ↓↓ = Significantly low at P ≤ 0.01 compared to respective control
  Intraocular pressure, Mean, Left eye: 21.11↓↓ mmHg
[8]; Day 28
  Intraocular pressure, Mean, Right eye: 17.11 mmHg
[8]; induced left eye, 28-day treatment regimen, 0.5%
  intraocular pressure following treatment: 21.11 mmHg
[8]; induced left eye, six animals, within three days
  mean intraocular pressure initially measured: 41.5 mmHg
[9]; Table 16
  cataract efficacy, histopathology (in words): fully regenerated in 5 out of 6 animals, from severe degeneration to a minimal scale; also recorded: One animal exhibited complete recovery
[9]; left eye induced
  Lens, Liquefaction: Minimal, incidence: 5/6
  No abnormality (histopathology), incidence: 1/6
[7]; [14]
  overall efficacy (in words): showed promise
[7]; second study, 0.5% rosmarinic acid (G2), 0.25% caffeic acid (G6), listed as caffeic acid
  overall efficacy (in words): shown to be the best
[7]; third study, cataract reduction and reducing intraocular pressure, highest to lowest
  overall efficacy / order of efficacy (in words): showed the best results, with remarkable efficacy not only in cataract reduction but also in addressing glaucoma; also recorded: Caffeic Acid G3>Epigallocatechin Gallate G4>Encapsulated Feruloyl Tyramine G5>Ferulic Acid G6>Rosmarinic Acid+Caffeic Acid G2
[10]; Table 15
  cataract efficacy, macroscopic (in words): all 6 animals were completely recovered, and no cataract was observed at all
[10]; [11]
  No Abnormality Detected, incidence: 6/6

Reference: patent US20260355137A1, “NOVEL OPHTHALMIC FORMULATION” (FERTIS INDIA PVT LTD, priority 2022, published 2026)
